Experiment [1] deals with IL-12 p35 mRNA. Nature of the experiment: Northern blot of IL-12 p35 mRNA in IFN-γ/SAC-stimulated human PBMC. The format is cell-based. The following applies: hPBMC. The protocol:
(§1) Northern blot analysis was performed to examine the mRNA levels of IL-12 p35 and p40. Human PBMC and the human monocyte cell line THP-1 cells were stimulated with IFN-γ/SAC in the presence or absence of Compound 1. Human PBMC were isolated by centrifugation using Ficoll-Paque (Pharmacia Biotech, Uppsala, Sweden) and prepared in RPMI medium supplemented with 10% fetal calf serum (FCS), 100 U/ml penicillin, and 100 μg/ml streptomycin, in a 96-well plate with 5×10^5 cells/well. The cells were then primed with IFN-γ (100 U/ml) and followed by 0.01% SAC or 1 μg/ml LPS, in the presence of different concentrations of Compound 2 or other compounds. The test compounds were prepared in DMSO and the final DMSO concentration was adjusted to 0.25% in all cultures, including the compound-free control. Cell-free supernatants were taken 18 h later for the measurement of cytokines. The THP-1 cells were obtained from American Type Culture Collection (Manassas, Va.) and were cultured in RPMI 1640 (ATCC, Manassas, Va.), supplemented with 10% FCS (ATCC, Manassas, Va.), and 1% penicillin/Streptomycin (Gibco-BRL, New York, N.Y.). Total RNA was isolated and subjected to Northern blot analysis using IL-12 p35 and p40 cDNA probes. We first examined the kinetics of mRNA accumulation in cultures of hPBMC and THP-1 cells primed with IFN-γ followed by SAC stimulation in the presence or absence of 1 μM Compound 1.
We conducted a dose-response study of the inhibitory effects of Compound 1 on IL-12 mRNA expression in IFN-γ/SAC-stimulated hPBMC. Because both IL-12 p35 and p40 mRNA levels were maximal at 6 h after the addition of SAC, this time point was selected for the dose-response analysis.

Experiment [2] relates to IL-12 p35 mRNA. Kind of experiment: Northern blot of IL-12 p35 mRNA in IFN-γ/SAC-stimulated THP-1 cells. The format is cell-based, human. The following applies: THP-1, IFN-γ/SAC, 1 μM Compound 1. The protocol:
as §1

In experiment [3] the test system is IL-12 production in THP-1 cells. Kind of experiment: Inhibition of IL-12 production in THP-1 cells (ELISA). The format is cell-based. As to conditions: Homo sapiens, read-out: IC50 against IL-12 production. An excerpt:
The foregoing and other useful combination therapies will be understood and appreciated by those of skill in the art. Potential advantages of such combination therapies include the ability to use less of each of the individual active ingredients to minimize toxic side effects, synergistic improvements in efficacy, improved ease of administration or use and/or reduced overall expense of compound preparation or formulation. The biological activities of a compound of this invention can be evaluated by a number of cell-based assays. One of such assays can be conducted using cells from human peripheral blood mononuclear cells (PBMC) or human monocytic cell line (THP-1). The cells are stimulated with a combination of human interferon-γ (IFN-γ) and lipopolysaccharide or a combination of IFN-γ and Staphylococcus aureus Cowan I in the presence of a test compound. The level of inhibition of IL-12 production can be measured by, e.g., determining the amount of p70 by using a sandwich ELBA assay with anti-human IL-12 antibodies. IC50 of the test compound can then be determined. Specifically, PBMC or THP-1 cells are incubated with the test compound. Cell viability was assessed using the bioreduction of MTS [3-(4,5-dimethylthiazol-2-yl)-5-(3-carboxymethoxyphenyl)-2-(4-sulfophenyl)-2H-tetrazolium] (Promega, Madison, Wis.). […]

The subject of experiment [4] is IL-12 p40. Nature of the experiment: IL-12 p40 inhibition after Toxoplasma antigen (STAg) versus IFN-γ/SAC stimulus. The following applies: preliminary results. The format is cell-based. The procedure: Compound 2 did, in fact, inhibit p70 but not p40 production in human DCs (no inhibition at up to 10 μM Compound 2). […] Therefore, if Compound 2 is acting through c-Rel, we should not observe potent inhibition of IL-12 p40 following STAg stimulation. […] These two results further confirm that the inhibition of IL-12 production by Compound 2 is via the c-Rel pathway.

Broadly, the IC50 is the concentration that gives 50% inhibition. As for `C(=NNc1nc(OCCc2ccccn2)nc(N2CCOCC2)n1)c1c[nH]c2ccccc12` [Compound 1, N-(1H-indol-3-ylmethylene)-N′-[4-morpholin-4-yl-6-(2-pyridin-2-yl-ethoxy)-[1,3,5]triazin-2-yl]-hydrazine], the IC50 in experiment [1] (Homo sapiens, PBMC, 6 h after SAC, read-out: IC50, IL-12 p35 mRNA accumulation) was under 1 nM; in experiment [3], 40 nM. In experiment [1] (1 μM Compound 1, all sampling times), the “expression of p35 mRNA” value is on record as “completely inhibited”. Further, the “induction of IL-12 p35 mRNA accumulation” value in experiment [1] (6 h after SAC, 3 nM) is “completely reversed”. In experiment [2], the “IL-12 p35 mRNA” value is on record as “undetectable”.

As to `Cc1cccc(C=NNc2cc(N3CCOCC3)nc(OCCc3ccccn3)n2)c1` [Compound 2, N-(3-methyl-benzylidene)-N′-[6-morpholin-4-yl-2-(2-pyridin-2-yl-ethoxy)-pyrimidin-4-yl]-hydrazine], the IC50 in experiment [3] stood at 10 nM. Moreover, in experiment [4], the “IC50 of p40 inhibition with STAg induction relative to IFN-γ/SAC stimulus” value is on record as “approximately 1000 times”.

The values are drawn from patent US9910031B2, “Compositions and methods for modulating c-Rel-dependent cytokine production” (Synta Pharmaceuticals Corporation, priority 2003, dated 2018).
